Reference: patent US4162253A, “Acaricidal agents” (Pfizer Inc., priority 1975, dated 1979)

Tested on: Adult Boophilus microplus
Experiment: Topical application test on fully engorged adult Boophilus microplus ticks; overall reduction in anticipated reproduction (eggs laid and hatching)
Assay type: in vivo
Conditions: Rhipicephalus microplus, read-out: In Vitro Activity (topical application) vs. Adult Boophilus microplus % Effect; for inhibition at 1 µg/tick: 1 μg/tick; for inhibition at 2 µg/tick: 2 μg/tick; for inhibition at 4 µg/tick: 4 μg/tick; for inhibition at 8 µg/tick: 8 μg/tick; for inhibition at 10 µg/tick: 10 μg/tick
Procedure: In one test, five freshly collected, fully engorged Boophilus microplus adult ticks are used for each acaricidal compound. Using a micro-pipette, 10 micro-liters of a solution containing 10 micro-grams of the acaricidal compound in ethanol or acetone, is applied to the dorsal surface of each of the ticks. The treated ticks are placed in weighted 1"×2" glass vials, weighted and stored at 26° C. and 80% relative humidity in plastic boxes for two weeks. The ticks are then removed from the vials and the vials weighted to give the weight of eggs laid by the ticks. Any reduction in the egg laying of the treated ticks is caculated as a percentage of the eggs laid by untreated control ticks.
The eggs are returned to the incubator for a further 3 weeks after which time the percentage of eggs hatching is estimated.
The percentage effect is calculated as the overall reduction in the anticipated reproduction of the ticks using the weight of eggs laid and the percentage of eggs hatching.
The test may be repeated using smaller amounts of the acaricidal compound for sufficiently active compounds.
The activity of many of the compounds of the Examples detailed hereinafter against the tick Boophilus microplus has been determined.

Compound | inhibition at 1 µg/tick | inhibition at 2 µg/tick | inhibition at 4 µg/tick | inhibition at 8 µg/tick | inhibition at 10 µg/tick | inhibition at 0.5 µg/tick (0.5 μg/tick)
CCCCCCCCCCCCCCCC[N+]1=C2SC=C(c3ccccc3)N2CCCC1 [Example 21] | 0% | 83% | 98% | 100% | 100% | –
CCCCCCCCCCCCC[N+]1=C2SC=C(c3ccccc3)N2CCCC1 [Example 31] | – | – | 0% | 52% | 100% | –
CCCCCCCCCCCCCCCC[N+]1=C2SC=C(C)N2CCCC1 [Example 20, 9-cetyl-3-methyl-5,6,7,8-tetrahydro-thiazolo[3,2-a][1,3]diazepinium bromide] | 29% | 67% | 99% | 100% | 100% | 0%
